# Columns and labels:
# [1] = target: recapture de la noradrénaline (Rattus norvegicus, UniProt Q63380); test: Inhibition of (3H)NA reuptake in primary cultured neurons (Example 39); format: cell-based; details: for Recapture de (³H)NA nH (nombre de Hill): cultured neurons from rat embryos
# Text: (§1) Exemple 39 : Etude de l'inhibition de la recapture de la dopamine et de la noradrénaline sur des neurones en culture.
# (§2) a) Cultures primaires de neurones.
# (§3) La substance noire, structure riche en cellules dopaminergiques, ou le locus coeruleus, contenant les corps cellulaires noradrénergiques, sont disséqués à partir d'embryons de rats de 14 jours, âge auquel les cellules ont terminé leur mitose. Les cellules sont dissociées mécaniquement dans un milieu sans calcium ni magnésium.
# (§4) L'ensemencement est réalisé dans des puits prétraités avec de la D-polylysine, à une densité de 150 000 cellules/puits, dans 400µl de milieu de culture composé de 70% de M.E.M.; 25% de Hanks; 5% de Nu-serum décomplémenté; plus 3% de D-glucose (1/20).
# (§5) Le milieu de culture est renouvelé au tiers tous les trois jours, jusqu'à 9 jours de développement "in vitro", âge auquel les cellules paraissent matures. A cet âge, la culture ne présente pas encore de cellule gliales.
# (§6) b) Test d'inhibition de la recapture de la dopamine et de la noradrénaline.
# (§7) On pré-incube les cellules obtenues en a) pendand 15min, à la température ambiante, avec 40µl d'un tampon constitué par le Ringer Phosphate-disodique 5 mM pH=7,6 dont la composition en concentrations finales est la suivante : NaCl 120mM; CaCl₂ 2,6 mM; MgCl₂ 1,3 mM; KCl 5mM; D-glucose 3 mM; Na₂HPO₄5mM.
# (§8) On incube ensuite pendant 10min à 37°C avec le même tampon en présence de (³H)Da ou de (³H)NA à une concentration finale 10⁻⁸M et une dilution isotopique de 1/5, et de concentrations croissantes en composé à tester dans un volume final de 400µl.
# (§9) On rince ensuite trois fois rapidement avec 750µl du même tampon à 4°C, ce qui correspond à une durée totale de 10 secondes.
# (§10) On récupère alors les cellules dans 2 fois 500µl de NaOH 0,5N et on détermine leur radioactivité par comptage avec 4ml de scintillant et 50µl d'acide acétique glacial.
# Avant les rinçages, on a prélevé un aliquote de 100µl du milieu d'incubation et on a déterminé la radioactivité libre sur celui-ci par comptage avec 5ml de scintillant. […]
# recapture de la dopamine = target: T1, recapture de la dopamine (Rattus norvegicus, UniProt P23977); test: Inhibition of (3H)DA reuptake in primary cultured neurons (Example 39); format: cell-based; details: for Recapture de (³H)DA nH (nombre de Hill) / IC50: cultured neurons from rat embryos; for IC50: 10⁻⁸M (3H)DA, 10 min at 37°C, read-out: Recapture de (³H)DA IC 50
# T1 construct: Cultures primaires de neurones; endogenous in cells; host or cells: primary neurons from substantia nigra of 14-day rat embryos
# T1 sequence (P23977 whole entry): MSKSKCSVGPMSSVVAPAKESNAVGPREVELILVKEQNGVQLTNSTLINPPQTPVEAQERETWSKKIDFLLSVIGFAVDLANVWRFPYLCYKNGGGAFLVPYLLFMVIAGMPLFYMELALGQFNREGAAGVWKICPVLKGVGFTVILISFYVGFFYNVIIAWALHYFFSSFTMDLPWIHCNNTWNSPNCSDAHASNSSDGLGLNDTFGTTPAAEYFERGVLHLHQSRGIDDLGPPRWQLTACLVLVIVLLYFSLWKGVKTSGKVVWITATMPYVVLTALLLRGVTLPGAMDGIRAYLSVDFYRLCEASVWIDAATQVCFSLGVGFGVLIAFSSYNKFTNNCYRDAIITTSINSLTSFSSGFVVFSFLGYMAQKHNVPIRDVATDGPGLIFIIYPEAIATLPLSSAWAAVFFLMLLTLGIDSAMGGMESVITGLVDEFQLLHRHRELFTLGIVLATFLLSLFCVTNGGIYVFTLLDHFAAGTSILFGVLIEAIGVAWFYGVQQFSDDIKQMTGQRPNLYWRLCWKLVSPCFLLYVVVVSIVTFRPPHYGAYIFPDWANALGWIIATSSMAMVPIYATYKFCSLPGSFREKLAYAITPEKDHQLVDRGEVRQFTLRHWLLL
# Text: as §1, §2, §3, §4, §5, §6, §7, §8, §9, §10
# Avant les rinçages, on a prélevé un aliquote de 100µl du milieu d'incubation et on a déterminé la radioactivité libre sur celui-ci par comptage avec 5ml de scintillant.
# La recapture spécifique de la (³H)DA ou de (³H)NA est déduite de la différence entre la recapture totale et la diffusion passive pour chacun des composés testés.
# [2] = system: fixation de la (³H)BTCP dans le striatum de souris; test: Inhibition of in vivo (3H)BTCP binding in mouse striatum (Example 40); details: mice, compound s.c. 60 min before i.v. (3H)BTCP, sacrifice 30 min later
# Procedure: Exemple 40 : Etude de l'inhibition de la fixation "in vivo" de (³H)BTCP chez la souris.
# Pour cette étude, on utilise des souris Swiss mâles pesant 20 à 25g. Les souris sont réparties par groupes et alimentées avec de la nourriture standard de laboratoire et de l'eau à volonté, en réalisant des cycles de lumière artificielle de 12h consécutives à partir de 7h du matin. Les expériences sont effectuées entre 10h et 18h. Les mesures de la fixation "in vivo" de la (³H)BTCP sont effectuées comme il a été décrit par Maurice et al, 1989, de la façon suivante.
# On injecte aux souris par voie sous-cutanée le composé à tester dans 100µl de solution physiologique pour les composés n^o 4 et n^o 16 et dans 100µl d'un mélange 1:1 en volume de solution physiologique et de DMSO pour le composé n^o 26. 60 min après cette injection on leur injecte dans une veine de la queue (³H)BTCP à une dose de 5µCi dans 100µl d'un mélange de solution physiologique et d'éthanol à 5%. 30min après cette injection, on sacrifie les souris. Les striata de cerveaux sont rapidement disséqués et homogénéisés avec un ultra turrax (IKA Verk) réglage maximum pendant 20s dans 80 volumes d'un tampon Na₂HPO₄, HCl 50mM, pH=7,4 à 4°C. Deux aliquots de […] sont filtrées sous pression réduite sur des filtres GF/B (Whatman) prétraités par de la polyéthylène imine à 0,5% (Aldrich). On rince ensuite les filtres deux fois avec 5ml d'un tampon NaCl 50mM, tris-HCl 10mM, pH=7,4 à 4°C. La radioactivité fixée qui reste sur les filtres, et la radioactivité totale, obtenue à partir des deux aliquots de 200µl d'homogénats sont mesurées dans des flacons de 6ml contenant 3,5ml de ACS (Amersham) avec un spectrophotomètre à scintillation liquide Excel 1410 (LKB). La fixation non spécifique est définie comme la radioactivité présente dans chaque région après prétraitement des animaux avec de la BTCP (40mg/kg dans 100µl de solution saline), injectée par voie sous-cutanée, 60min avant l'injection de (³H)BTCP. Les résultats sont exprimés sous la forme des rapports radioactivité fixée / radioactivité libre (B/F) dans lesquels le taux de (³H)BTCP libre est estimé en soustrayant la radioactivité fixée de la radioactivité totale.
# recapture de la noradrénaline, sequence (Q63380 1-617): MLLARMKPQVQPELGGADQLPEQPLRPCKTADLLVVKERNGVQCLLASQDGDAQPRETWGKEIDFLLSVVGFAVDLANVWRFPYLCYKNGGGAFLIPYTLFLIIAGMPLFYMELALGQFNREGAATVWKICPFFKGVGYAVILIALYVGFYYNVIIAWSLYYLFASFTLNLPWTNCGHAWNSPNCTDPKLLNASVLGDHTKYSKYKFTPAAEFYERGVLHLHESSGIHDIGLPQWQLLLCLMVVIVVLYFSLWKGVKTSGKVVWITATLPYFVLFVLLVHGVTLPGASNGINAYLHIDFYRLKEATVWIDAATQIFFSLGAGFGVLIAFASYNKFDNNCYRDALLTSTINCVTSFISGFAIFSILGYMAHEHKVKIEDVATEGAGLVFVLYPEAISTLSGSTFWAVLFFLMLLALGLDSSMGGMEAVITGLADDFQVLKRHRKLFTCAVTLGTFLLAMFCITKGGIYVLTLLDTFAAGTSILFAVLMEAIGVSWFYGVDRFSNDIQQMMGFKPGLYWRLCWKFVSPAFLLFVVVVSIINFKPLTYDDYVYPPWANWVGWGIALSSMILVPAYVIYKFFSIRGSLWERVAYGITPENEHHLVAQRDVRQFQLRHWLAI
structure (smiles),measurement,setting,value
"CCCN(CCC)C1(c2cc3ccccc3s2)CCCCC1 [composé no 3, (benzo(b)thiophényl-2)-1 (dipropylamino-1)-1 cyclohexane]",Recapture de (³H)NA nH (nombre de Hill),[1],"0,85"
"CC1CCCN(C2(c3cc4ccccc4s3)CCCCC2)C1 (stereo not drawn) [composé n^o 2, (benzo(b)thiophényl-2)-1 ((méthyl-3 pipéridino)-1)-1 cyclohexane]",Recapture de (³H)DA nH (nombre de Hill),recapture de la dopamine,"0,95"
same,IC50,recapture de la dopamine,70 nM
"CC1CC(C)CN(C2(c3cc4ccccc4s3)CCCCC2)C1 (stereo not drawn) [composé n^o 6, (benzo(b)thiophényl-2)-1 ((diméthyl-3,5 pipéridino)-1)-1 cyclohexane]","Recapture de la dopamine, result in words",recapture de la dopamine; cultured neurons,inhibiteur très puissant
same,Recapture de (³H)DA nH (nombre de Hill),recapture de la dopamine,"0,95"
same,IC50,recapture de la dopamine,1.47 nM
same,"Recapture de la noradrénaline, result in words",[1]; cultured neurons,inhibiteur très puissant
same,Recapture de (³H)NA nH (nombre de Hill),[1],"1,2"
"C[C@H]1CC[C@@](c2cc3ccccc3s2)(N2CCCCC2)CC1 [composé n^o 21, (benzo(b)thiophényl-2)-1 c-méthyl-4-r-(pipéridino-1)-1 cyclohexane]",Recapture de (³H)DA nH (nombre de Hill),recapture de la dopamine,"1,07"
same,IC50,recapture de la dopamine,8 nM
"OC1CCN(C2(c3cc4ccccc4s3)CCCCC2)CC1 [composé 26, (benzo(b)thiophényl-2)-1( (ol-4-pipéridino)-1)-1 cyclohexane]",Recapture de (³H)DA nH (nombre de Hill),recapture de la dopamine,"1,09"
same,IC50,recapture de la dopamine,17 nM
same,ID₅₀ (mg/kg),[2],"0,56 mg/kg"
"c1ccc2oc(C3(N4CCCCC4)CCCCC3)cc2c1 [composé n^o 4, (benzo(b)furannyl-2)-1 (pipéridino-1)-1 cyclohexane]",ID₅₀ (mg/kg),[2],"7,78 mg/kg"
"c1ccc2sc(C3(N4CCCCC4)CCCCC3)cc2c1 [BTCP, (benzo(b)thiophényl-2)-1 (pipéridino -1) cyclohexane, reference compound]",ID₅₀ (mg/kg),[2],"4,98 mg/kg"
